US10544137B2, “PI3K inhibitor, and pharmaceutically acceptable salt, polycrystalline form, and application thereof” (SHANGHAI HAIYAN PHARMACEUTICAL TECHNOLOGY CO., LTD., priority 2016, dated 2020)
Where two headings read alike, the source gives them in different places.

Columns and labels:
[1] = Solubility experiment in 0.1M HCl, buffers and water; type: physicochemical; settings: ambient temperature; for solubility at 30 min: thermodynamic from solid
Protocol: The solubilities of the following four kinds of salt and free base sample in 0.1M HCl, pH 4.5 buffer, pH 6.8 buffer, and water were tested at ambient temperature. In the test, the calibration curves of free base and four kinds of salt were plotted. 3 mg of solid samples of free base and four kinds of salt were weighed, respectively, and then 1 ml of the solvent was added, centrifuged after 30 min ultrasound. The supernatant was taken, and injected through the membrane, and the solubility was tested.

[2] = Metabolism stability assay in liver microsomes; type: in vitro ADME, mouse; settings: liver microsomal metabolism in mice
Protocol: Buffer A: 1 L solution of 100 mM potassium dihydrogen phosphate containing 1 mM EDTA (Sigma, V900157-100G) was prepared. Buffer B: 1 L solution of 100 mM dipotassium hydrogen phosphate containing 1 mM EDTA was prepared. Buffer C: 700 mL of buffer B was taken out and titrated with buffer A to pH 7.4.
2.1 10 μl of 10 mM compound to be tested and 10 μl of 10 mM ketanserin were taken out and 190 μl of pure acetonitrile was added to each of them to prepare 500 μM compound to be tested and ketanserin, respectively.
2.2 20 μl (20 mg/mL) of liver microsomes (XENOTECH, H0610) stock solution was added to 513.4 μl of buffer C on wet ice. 0.75 mg/mL liver microsomal solution was obtained.
2.3 1.5 μl of each of the above-mentioned compound to be tested and ketanserin solution was added to 498.5 μl of liver microsomal solution (0.7 5 mg/mL) respectively on wet ice. 1.5 μM mixed solution of compound to be tested and 1.5 μM mixed solution of ketanserin were obtained. […]
2.10 The sample was diluted with pure water in accordance with the ratio of 1:1 and detected by LC/MS. […]
Wherein, the K value and the proportional factor were calculated by those skilled in the art according to the methods described in the prior art and contained in the instructions of the liver microsome product.

[3] = system: NIH-3T3 cells; experiment: Cytotoxicity in normal cell line NIH-3T3 (MTT assay); type: cell-based
Protocol: The MTT assay procedure and steps were carried out as well known to those skilled in the art, and all the reagents used in the methods were commercially available.
The cells in logarithmic growth phase were digested with 0.25% EDTA trypsin (Gibco, 25200-056) and resuspended in fresh medium. 90 μL of the cell suspension was inoculated into a 96-well cell culture plate (BD Faclon 353072) with a suitable cell density and cultured at 37° C. under 5% CO2. After the cells adhered, 10 μL of the test compound at different concentrations (0.0046-10 μM, 8 concentration points) was added and incubated for another 72 h. 10 μL of MTT (5 mg/mL PBS solution) (Sigma, M5655) was added to react for 4 h. The absorbance at 492 nm was measured by using Thermo Scientific Multiskan MK3 microplate reader and IC50 was calculated using XLFIT 5.0 software (UK IDBS).

[4] = target: T1, PI3K-α (p110α/p85α) (Homo sapiens, UniProt P42336); experiment: Determination of PI3K kinase activity (ADP Transcreener fluorescence polarization), PI3K-α; type: biochemical; settings: compared with BKM-120
T1 construct: purchased Invitrogen PV4788
T1 sequence (P42336 whole entry): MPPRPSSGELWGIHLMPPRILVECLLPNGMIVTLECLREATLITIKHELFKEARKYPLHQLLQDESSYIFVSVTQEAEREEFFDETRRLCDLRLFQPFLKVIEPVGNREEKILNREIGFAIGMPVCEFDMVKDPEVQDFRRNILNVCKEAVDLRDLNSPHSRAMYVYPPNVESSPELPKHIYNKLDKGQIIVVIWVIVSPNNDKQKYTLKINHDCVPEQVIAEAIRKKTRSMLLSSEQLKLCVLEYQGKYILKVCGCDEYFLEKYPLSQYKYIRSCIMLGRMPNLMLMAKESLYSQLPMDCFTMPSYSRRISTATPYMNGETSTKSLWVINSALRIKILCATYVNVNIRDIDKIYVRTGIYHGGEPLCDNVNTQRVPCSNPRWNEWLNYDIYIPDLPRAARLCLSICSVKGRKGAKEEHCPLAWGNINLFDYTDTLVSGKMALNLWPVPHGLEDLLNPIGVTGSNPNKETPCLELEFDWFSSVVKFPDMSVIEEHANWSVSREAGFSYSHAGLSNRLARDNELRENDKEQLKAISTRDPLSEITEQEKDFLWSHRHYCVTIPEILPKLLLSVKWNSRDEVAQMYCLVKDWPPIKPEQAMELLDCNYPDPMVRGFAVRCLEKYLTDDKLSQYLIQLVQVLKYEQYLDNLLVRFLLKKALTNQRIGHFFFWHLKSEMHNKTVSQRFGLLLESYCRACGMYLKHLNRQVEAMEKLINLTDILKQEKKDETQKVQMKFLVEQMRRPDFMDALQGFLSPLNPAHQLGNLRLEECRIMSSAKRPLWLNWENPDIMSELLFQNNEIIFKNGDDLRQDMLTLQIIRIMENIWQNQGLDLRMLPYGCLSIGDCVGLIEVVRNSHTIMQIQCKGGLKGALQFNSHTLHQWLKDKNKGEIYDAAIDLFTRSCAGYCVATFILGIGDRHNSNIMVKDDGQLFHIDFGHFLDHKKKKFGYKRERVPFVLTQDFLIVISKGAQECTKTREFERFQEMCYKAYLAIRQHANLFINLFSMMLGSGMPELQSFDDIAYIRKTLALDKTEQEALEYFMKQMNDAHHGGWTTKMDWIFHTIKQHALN
T1 sequence (P27986 whole entry partner): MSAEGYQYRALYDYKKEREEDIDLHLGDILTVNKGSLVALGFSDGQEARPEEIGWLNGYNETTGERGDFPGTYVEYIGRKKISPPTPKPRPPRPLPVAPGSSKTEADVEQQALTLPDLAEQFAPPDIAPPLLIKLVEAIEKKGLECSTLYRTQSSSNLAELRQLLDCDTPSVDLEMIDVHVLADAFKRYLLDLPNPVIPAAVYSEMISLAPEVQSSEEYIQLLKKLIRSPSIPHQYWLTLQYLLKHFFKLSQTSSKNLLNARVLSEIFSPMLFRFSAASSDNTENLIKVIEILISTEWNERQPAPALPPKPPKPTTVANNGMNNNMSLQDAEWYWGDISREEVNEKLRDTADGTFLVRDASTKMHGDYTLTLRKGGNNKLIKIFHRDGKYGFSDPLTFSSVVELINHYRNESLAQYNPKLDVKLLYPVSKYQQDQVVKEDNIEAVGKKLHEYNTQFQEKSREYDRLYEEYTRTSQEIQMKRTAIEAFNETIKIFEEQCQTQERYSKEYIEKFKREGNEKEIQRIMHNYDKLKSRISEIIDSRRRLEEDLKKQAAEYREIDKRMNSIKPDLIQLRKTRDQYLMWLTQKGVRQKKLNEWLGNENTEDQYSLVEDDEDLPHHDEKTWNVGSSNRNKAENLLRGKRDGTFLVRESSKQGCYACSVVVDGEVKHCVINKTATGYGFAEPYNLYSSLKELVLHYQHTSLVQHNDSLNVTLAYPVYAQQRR
Protocol: The inhibition of PI3K kinase activity by the compound to be tested was determined by the following method. The working concentration of each component in the 25 μL enzyme reaction system was: p110α/p85α 3 ng (or p110β/p85α 60 ng, or p110δ/p85α 90 ng, or p110γ 100 ng), ATP 10 μM, PIP2: PS (Invitrogen PV5100) 30 μM and the DMSO concentration was 2% after addition of the compound to be tested.
The compound to be tested was gradiently diluted 3 times (0.00046-1 μM, 8 concentration points) with 10% DMSO. 5 μL of the compound to be tested was added to each well of a 96-well plate (Greiner 675076) in duplicate. […] 10 μL of ATP/PIP2: PS and 10 μL of the PI3K enzyme working solution were added to each well in a 96-well plate. The plate was shaken and mixed uniformly, and then incubated at 25° C. for 1 hour. […] After completion of the enzyme reaction, 25 μL of ADP assay solution (1% 100×ADP tracer, 0.79% ADP antibody and 10% 10× reaction stop solution) was added and incubated at 25° C. for 1 hour. Fluorescence polarization value [mP] of each well was measured with a Perkin Elmer Victor X5 Fluorescent Microplate. The ADP concentration [ADP] was calculated from the ADP/ATP standard curve and the IC50 values were calculated using the XLFit software.

## CS(=O)(=O)C1(c2cc(-c3cnc(N)cc3Cl)nc(N3CCOCC3)n2)CC1 [Compound of formula X, 4-chloro-5-(6-(1-(methylsulfonyl)cyclopropyl)-2-morpholinopyrimidin-4-yl)pyridin-2-amine]
[1]; 0.1M HCl, listed as Free base
  Solubility (mg/mL) 0.1M HCl: >2.973 mg/mL
[1]; pH 4.5 buffer, pH 4.5, aqueous buffer, pH 4.5 buffer, read-out: Solubility (mg/mL) pH 4.5
  solubility at 30 min: 0.025 mg/mL
[1]; pH 6.8 buffer, pH 6.8, aqueous buffer, pH 6.8 buffer, read-out: Solubility (mg/mL) pH 6.8
  solubility at 30 min: 0.015 mg/mL
[1]; water, listed as Free base
  Solubility (mg/mL) H2O: 0.016 mg/mL
[2]
  Clearance: 108.9 mL/min/kg
[3]
  cytotoxicity in normal cell lines: relatively low cytotoxicity
[4]
  increase of inhibitory activity against PI3K-α kinase versus BKM-120: about 10 times
